Measured values published in patent US6262053A, “Melamine derivatives as potent anti-cancer agents” (Parker Hughes Institute, priority 1999, dated 2001).
Read-outs that look alike come from different tables or passages of the source.

Key:
Type in all cases: cell-based
NALM-6 leukemia cells = experiment: MTT cytotoxicity assay, NALM-6 leukemia cells; settings: Homo sapiens, 24-36 hours at 37° C.
Method: (§1) Cytotoxicity of various compounds against tumor cells was performed using the MTT (3-[4,5-dimethylthiazol-2-yl]-2,5-diphenyl tetrazolium bromide) assay (Boehringer Mannheim Corp., Indianapolis, Ind.). Unless otherwise specified, all cell lines were obtained from the American Type Culture Collection (ATCC). Briefly, exponentially growing cells were seeded into a 96-well plate at a density of 2.5×10^4 cells/well and incubated for 36 hours at 37° C. prior to drug exposure. On the day of treatment, culture medium was carefully aspirated from the wells and replaced with fresh medium containing WHI-P239 at concentrations ranging from 0.1 to 250 μM. Triplicate wells were used for each treatment.
(§2) Human leukemic cell lines (NALM-6, MOLT-3), human breast tumor cells (BT20), prostate cancer cells (PC3), and glioblastoma cells (U373) were obtained from the American Type Culture Collection and maintained as a continuous cell line in Dulbecco's modified Eagles's medium supplemented with 10% fetal bovine serum and antibiotics.
(§3) The cells were incubated with the various compounds for 24-36 hours at 37° C. in a humidified 5% CO2 atmosphere. To each well, 10 μl of MTT (0.5 mg/ml final concentration) was added and the plates were incubated at 37° C. for 4 hours to allow MTT to form formazan crystals by reacting with metabolically active cells. The formazan crystals were solubilized overnight at 37° C. in a solution containing 10% SDS in 0.01 M HCl. The absorbence of each well was measured in a microplate reader (Labsystems) at 540 nm and a reference wavelength of […]. To translate the OD540 values into the number of live cells in each well, the OD540 values were compared to those on standard OD540 -versus-cell number curves generated for each cell line. The percent survival was calculated using the formula shown below. [formula]

[1] = test system: BT-20 breast cancer cells; experiment: MTT cytotoxicity assay, BT-20 breast cancer cells; settings: Homo sapiens, 24-36 hours at 37° C.
Method: as §1, §2, §3

[2] = test system: PC-3 prostate cancer cells; experiment: MTT cytotoxicity assay, PC-3 prostate cancer cells; settings: 24-36 hours at 37° C.
Method: as §1, §2, §3

U373 glioblastoma cells = experiment: MTT cytotoxicity assay, U373 glioblastoma (brain tumor) cells; settings: Homo sapiens, U373 MG, 24-36 hours at 37° C.
Method: as §1, §2, §3

Compound | IC50 (NALM-6 leukemia cells; read-out: IC50 NALM-6 Leukemia) [µM] | IC50 [1] [µM] | IC50 [2] [µM] | IC50 (U373 glioblastoma cells) [µM] | IC50 (NALM-6 leukemia cells; leukemia cells, read-out: IC50 antileukemic potency (unit printed EM)) [µM]
Oc1ccc(Nc2nc(Nc3ccc(O)cc3)nc(Nc3ccc(O)cc3)n2)cc1 [WHI-P199, 2,4,6-Tri(4'-hydroxylphenyl)-amino-1,3,5-triazine] | > 250 | 240 | 221 | > 250 | 
Oc1c(Br)cc(Nc2nc(Nc3cc(Br)c(O)c(Br)c3)nc(Nc3cc(Br)c(O)c(Br)c3)n2)cc1Br [WHI-P200, 2,4,6-Tri(3',5'-dibromo-4'-hydroxylphenyl)-amino-1,3,5-triazine] | 10.1 | 27.1 | 64.5 | > 250 | 
Oc1ccccc1Nc1nc(Nc2ccccc2O)nc(Nc2ccccc2O)n1 [WHI-P205, 2,4,6-Tri(2'-hydroxylphenyl)-amino-1,3,5-triazine] | 21.5 | 108 | 102 | 224 | 
Brc1cccc(Nc2nc(Nc3cccc(Br)c3)nc(Nc3cccc(Br)c3)n2)c1 [WHI-P206, 2,4,6-Tri(3'-bromophenyl)-amino-1,3,5-triazine] | > 250 | > 250 | > 250 | > 250 | 
Oc1cccc(Nc2nc(Nc3cccc(O)c3)nc(Nc3cccc(O)c3)n2)c1 [WHI-P233, 2,4,6-Tri(3'-hydroxylphenyl)-amino-1,3,5-triazine] | 5.1 | 66.1 | 45.1 | 104 | 5.1
Oc1c(Cl)cc(Nc2nc(Nc3cc(Cl)c(O)c(Cl)c3)nc(Nc3cc(Cl)c(O)c(Cl)c3)n2)cc1Cl [WHI-P239, 2,4,6-Tri(3',5'-dichloro-4'-hydroxylphenyl)-amino-1,3,5-triazine] | 9.8 | 13.2 | 31.5 | 155 | 
